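Cultured in 96-well plates, cells were exposed to test compound for 48 hours across five concentrations. TGI marks complete inhibition of growth.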 Where only a bound is given, the exact number is not on record here.

TGI data for eleven compounds are collected here from PubChem BioAssay (NCI).

Among the test systems are ACHN renal; CAKI-1 renal; HCT-116 colon; HOP-92 NSCLC; HS 578T breast; IGROV1 ovarian; MALME-3M melanoma; MDA-MB-231 breast; NCI-H226 lung; NCI-H460 lung; NCI-H522 lung; OVCAR-3 ovarian; SF-268 CNS; SF-539 CNS; SK-MEL-28 melanoma; SW-620 colon; T-47D breast; TK-10 renal; U251 CNS.
What all share (assay): growth of human tumour cells (NCI), 48 h

Consider `Cc1nn2c(=O)c([N+](=O)[O-])c(/C=C/c3ccc(F)cc3)nc2s1`, for which the TGI in the experiment on ACHN renal was found to be 20.6 µM; with CAKI-1 renal, 27.9 µM; in the experiment with HCT-116 colon it was 15.1 µM; with HOP-92 NSCLC, 26.3 µM; in the experiment with HS 578T breast it was 28.6 µM; in the experiment with IGROV1 ovarian it was 22.6 µM. Also, the TGI with MALME-3M melanoma was 16.7 µM; with MDA-MB-231 breast, 26.8 µM; in the experiment with NCI-H226 lung, 19 µM; in the experiment with NCI-H460 lung, 22.9 µM; in the experiment with NCI-H522 lung, 18 µM; in the experiment on OVCAR-3 ovarian, 16.6 µM. Moreover, the TGI in the experiment on SF-268 CNS came to 26.2 µM; in the experiment with SF-539 CNS, 17.9 µM; in the experiment with SK-MEL-28 melanoma, 19.7 µM; in the experiment on SW-620 colon, 19.3 µM; with T-47D breast, 19.3 µM; with TK-10 renal, 20.7 µM. In the experiment on U251 CNS, the TGI came out at 14.6 µM.
Turning to `O=C(/C=C/c1ccc(OCc2ccccc2)cc1)NCc1ccc(C(=O)NCCc2ccccc2)cc1`, the TGI in the experiment on ACHN renal, in the experiment with CAKI-1 renal, with HCT-116 colon, in the experiment on HOP-92 NSCLC, with HS 578T breast and with IGROV1 ovarian was greater than 100 µM each time. For the same compound, the TGI with MALME-3M melanoma, in the experiment on MDA-MB-231 breast, in the experiment with NCI-H226 lung, with NCI-H460 lung, in the experiment on NCI-H522 lung and in the experiment with OVCAR-3 ovarian was greater than 100 µM each time. The TGI in the experiment on SF-268 CNS, in the experiment with SF-539 CNS, in the experiment on SK-MEL-28 melanoma, with SW-620 colon, in the experiment with T-47D breast and in the experiment with TK-10 renal was greater than 100 µM throughout. The TGI with U251 CNS was greater than 100 µM.
For `CC(=O)O[C@H]1[C@@H](N2CCOCC2)C[C@H]2[C@@H]3CC=C4C[C@@H](N5CCCC5)CC[C@]4(C)[C@H]3CC[C@@]21C`, the TGI with ACHN renal, in the experiment with CAKI-1 renal, with HCT-116 colon, with HOP-92 NSCLC, in the experiment on HS 578T breast and in the experiment with IGROV1 ovarian was greater than 100 µM each time. In addition, the TGI in the experiment on MALME-3M melanoma, with MDA-MB-231 breast, in the experiment on NCI-H226 lung, in the experiment on NCI-H460 lung, in the experiment with NCI-H522 lung and with OVCAR-3 ovarian was greater than 100 µM throughout. Also, the TGI with SF-268 CNS, with SF-539 CNS, with SK-MEL-28 melanoma, with SW-620 colon, in the experiment on T-47D breast and in the experiment on TK-10 renal was greater than 100 µM each time. In the experiment with U251 CNS, this compound displayed a TGI greater than 100 µM.
For `C=C1OC2OC(C)C(NC(=O)OCC(Cl)(Cl)Cl)C(OC(C)=O)C2O1` (centres undefined), the TGI with ACHN renal, with CAKI-1 renal, in the experiment with HCT-116 colon, with HOP-92 NSCLC, in the experiment with HS 578T breast and with IGROV1 ovarian was greater than 100 µM in each case. In addition, the TGI in the experiment with MALME-3M melanoma, in the experiment with MDA-MB-231 breast, in the experiment with NCI-H226 lung, in the experiment with NCI-H460 lung, with NCI-H522 lung and in the experiment on OVCAR-3 ovarian was greater than 100 µM each time. Further, the TGI in the experiment with SF-268 CNS, in the experiment on SF-539 CNS, in the experiment on SK-MEL-28 melanoma, in the experiment on SW-620 colon, with T-47D breast and in the experiment on TK-10 renal was greater than 100 µM throughout. In the experiment on U251 CNS, this compound registered a TGI greater than 100 µM.
Turning to `O=c1c(-c2nc3ccccc3c3ccccc3c2=O)nc2ccccc2c2ccccc12`, the TGI was greater than 100 µM in the experiment with ACHN renal; greater than 100 µM with CAKI-1 renal; 71.6 µM in the experiment with HCT-116 colon; greater than 100 µM in the experiment on HOP-92 NSCLC; greater than 100 µM with HS 578T breast; greater than 100 µM in the experiment on IGROV1 ovarian. Also, the TGI in the experiment with MALME-3M melanoma is greater than 100 µM; with MDA-MB-231 breast it was greater than 100 µM; in the experiment with NCI-H226 lung, greater than 100 µM; with NCI-H460 lung it was greater than 100 µM; in the experiment on NCI-H522 lung, greater than 100 µM; with OVCAR-3 ovarian, 97.3 µM. Also, the TGI was greater than 100 µM in the experiment with SF-268 CNS; 55.3 µM with SF-539 CNS; greater than 100 µM in the experiment on SK-MEL-28 melanoma; greater than 100 µM in the experiment on SW-620 colon; greater than 100 µM with T-47D breast; greater than 100 µM in the experiment on TK-10 renal. In the experiment with U251 CNS, this compound yielded a TGI of 60.3 µM.
As for `Nc1nc(Sc2ccc([N+](=O)[O-])c3nonc23)c2[nH]cnc2n1`, the TGI was 10.4 µM with ACHN renal; 5.74 µM in the experiment on CAKI-1 renal; 3.89 µM in the experiment with HCT-116 colon; 10.5 µM in the experiment with HOP-92 NSCLC; 62.5 µM in the experiment on HS 578T breast; 17.1 µM in the experiment with IGROV1 ovarian. In addition, the TGI in the experiment with MALME-3M melanoma worked out at 5.03 µM; in the experiment with MDA-MB-231 breast, 13.7 µM; in the experiment on NCI-H226 lung, 11.3 µM; with NCI-H460 lung it was 10.7 µM; in the experiment with NCI-H522 lung, 2.44 µM; with OVCAR-3 ovarian it was 13.8 µM. In addition, the TGI in the experiment on SF-268 CNS was 18 µM; in the experiment with SF-539 CNS, 14.8 µM; in the experiment with SK-MEL-28 melanoma, 22.3 µM; in the experiment on SW-620 colon it was 2.87 µM; with T-47D breast, 4.43 µM; in the experiment with TK-10 renal, 6.4 µM. This compound also yielded a TGI with U251 CNS of 21.7 µM.
Consider `NC(CCC(=O)c1ccccn1)C(=O)O` (centres undefined), for which the TGI in the experiment with ACHN renal, in the experiment on CAKI-1 renal, in the experiment on HCT-116 colon, with HOP-92 NSCLC, with HS 578T breast and with IGROV1 ovarian was greater than 100 µM throughout. The TGI with MALME-3M melanoma, with MDA-MB-231 breast, in the experiment on NCI-H226 lung, in the experiment on NCI-H460 lung, in the experiment on NCI-H522 lung and in the experiment on OVCAR-3 ovarian was greater than 100 µM each time. Moreover, the TGI in the experiment on SF-268 CNS, with SF-539 CNS, in the experiment on SK-MEL-28 melanoma, in the experiment on SW-620 colon, in the experiment with T-47D breast and with TK-10 renal was greater than 100 µM each time. This compound gave a TGI in the experiment with U251 CNS greater than 100 µM.
With `CC(=O)Oc1ccc2cc(Oc3cc(Cl)c(Cl)cc3Cl)c(=O)oc2c1`, the TGI in the experiment on ACHN renal was 50.5 µM; in the experiment with CAKI-1 renal, 33.6 µM; with HCT-116 colon it was 28.1 µM; in the experiment on HOP-92 NSCLC, 48 µM; in the experiment with HS 578T breast, 65 µM; in the experiment with IGROV1 ovarian, 32.1 µM. Further, the TGI amounted to 31.3 µM with MALME-3M melanoma; 33.7 µM in the experiment with MDA-MB-231 breast; 36.7 µM in the experiment with NCI-H226 lung; 37.8 µM with NCI-H460 lung; 34.6 µM with NCI-H522 lung; 31.6 µM in the experiment with OVCAR-3 ovarian. Moreover, the TGI was greater than 100 µM in the experiment on SF-268 CNS; 31.2 µM in the experiment on SF-539 CNS; 59.6 µM in the experiment with SK-MEL-28 melanoma; 28 µM with SW-620 colon; greater than 100 µM in the experiment with T-47D breast; 74.5 µM in the experiment with TK-10 renal. Besides, in the experiment with U251 CNS, the TGI amounted to 32.5 µM.
With `O=C1c2cc3c(cc2NC(c2ccccc2F)C1O)OCO3` (centres undefined), the TGI was greater than 100 µM in the experiment with ACHN renal; greater than 77.8 µM in the experiment on CAKI-1 renal; greater than 35.7 µM with HCT-116 colon; greater than 100 µM in the experiment on HOP-92 NSCLC; 48.2 µM in the experiment with HS 578T breast; greater than 100 µM with IGROV1 ovarian. Further, the TGI was greater than 100 µM in the experiment on MALME-3M melanoma; greater than 76.2 µM in the experiment with MDA-MB-231 breast; greater than 64.7 µM in the experiment with NCI-H226 lung; greater than 100 µM with NCI-H460 lung; 34.4 µM with NCI-H522 lung; greater than 62.7 µM with OVCAR-3 ovarian. Further, the TGI in the experiment on SF-268 CNS is 68.2 µM; in the experiment on SF-539 CNS, 35.2 µM; in the experiment with SK-MEL-28 melanoma it was greater than 79.4 µM; with SW-620 colon it was greater than 100 µM; with T-47D breast it was greater than 100 µM; in the experiment with TK-10 renal it was 73.1 µM. Also, in the experiment with U251 CNS, the TGI is greater than 68 µM.
Take `Cc1c(C#N)c2nnn(-c3cccc(Cl)c3)c(=O)n2c1-c1ccccc1`: the TGI is greater than 100 µM with ACHN renal; greater than 100 µM in the experiment on CAKI-1 renal; 38.2 µM in the experiment on HCT-116 colon; greater than 100 µM in the experiment with HOP-92 NSCLC; greater than 100 µM with HS 578T breast; greater than 100 µM with IGROV1 ovarian. Also, the TGI in the experiment with MALME-3M melanoma is greater than 100 µM; in the experiment on MDA-MB-231 breast, 6.1 µM; in the experiment on NCI-H226 lung, 12.6 µM; with NCI-H460 lung, greater than 100 µM; with NCI-H522 lung it was 8.59 µM; in the experiment on OVCAR-3 ovarian it was 5.59 µM. Besides, the TGI with SF-268 CNS is greater than 100 µM; with SF-539 CNS, 10.4 µM; in the experiment with SK-MEL-28 melanoma, greater than 100 µM; in the experiment on SW-620 colon, greater than 100 µM; in the experiment with T-47D breast, 53.9 µM; in the experiment on TK-10 renal, greater than 100 µM. The TGI with U251 CNS amounted to 11.1 µM.
In the case of `S=c1ncc(-c2cncc(-c3cnc(=S)[nH]c3)n2)c[nH]1`, the TGI with ACHN renal, with CAKI-1 renal, in the experiment on HCT-116 colon, in the experiment with HOP-92 NSCLC, in the experiment with HS 578T breast and in the experiment on IGROV1 ovarian was greater than 100 µM throughout. Besides, the TGI with MALME-3M melanoma, in the experiment with MDA-MB-231 breast, in the experiment with NCI-H226 lung, in the experiment on NCI-H460 lung, with NCI-H522 lung and in the experiment with OVCAR-3 ovarian was greater than 100 µM each time. The TGI in the experiment on SF-268 CNS, with SF-539 CNS, in the experiment on SK-MEL-28 melanoma, in the experiment with SW-620 colon, in the experiment with T-47D breast and in the experiment on TK-10 renal was greater than 100 µM each time. Besides, the TGI in the experiment with U251 CNS was greater than 100 µM.
